According to paper PMC9379910, “Chimeric Ligands of Pili and Lectin A Inhibit Tolerance, Persistence, and Virulence Factors of Pseudomonas aeruginosa over a Wide Range of Phenotypes” (ACS Infectious Diseases, 2022):

What was measured:
LecA [1] = biological target: T1, LecA (Pseudomonas aeruginosa, UniProt Q05097); assay: competitive fluorescence polarization (displacement of βGal-aryl-Dansyl from […] LecA); assay type: binding
LecA [2] = biological target: T1, LecA; assay: competitive fluorescence polarization (displacement of βGal-aryl-Dansyl from […] LecA); also motility-enabled binding assay
LecA [3] = biological target: T1, LecA; assay: direct fluorescence polarization titration with LecA ([…]); assay type: binding

T1 sequence (Q05097 2-122): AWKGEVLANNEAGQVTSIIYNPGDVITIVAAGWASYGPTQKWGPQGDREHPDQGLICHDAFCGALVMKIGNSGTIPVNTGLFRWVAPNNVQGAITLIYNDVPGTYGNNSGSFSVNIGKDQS

CCCCCCCC(C)CC(C)CCO[C@@H]1O[C@H](CO)[C@@H](O[C@@H]2O[C@H](CO)[C@@H](O)[C@H](O)[C@H]2O)[C@H](O)[C@H]1O (stereo partly drawn) [1b, 3,5-diMeDβC]
IC50 (LecA [1]): 13 µM

CCCCCCCC(C)CC(C)CCO[C@@H]1O[C@H](CO)[C@@H](O[C@H]2O[C@H](CO)[C@@H](O)[C@H](O)[C@H]2O)[C@H](O)[C@H]1O (stereo partly drawn) [1a, 3,5-diMeDβM]
IC50 (LecA [2]): 15 µM

CN(C)c1cccc2c(S(=O)(=O)Nc3ccc(O[C@@H]4O[C@H](CO)[C@H](O)[C@H](O)[C@H]4O)cc3)cccc12 [βGal-aryl-Dansyl]
Kd (LecA [3]): ~10.7 µM
